In patent US20190327974A1, “SYNERGISTS FOR IMPROVED PESTICIDES” (priority 2017, published 2019):

What was measured:
[1] = tested on: Ostrinia nubilalis (European corn borer); experiment: Efficacy of chlorpyrifos-ethyl with boronic acids on European corn borer on corn leaves; format: in vivo
Description: Treatments were performed by spraying a volume of mixture corresponding to 200 l/ha. 4 boxes/condition.
Drying 1 h at 20° C.; Deposit of three leaf fragments per box on water agar (4 box/condition); Infection of each leaf fragment with 4 Ostrinia nubilalis (12 larvae/box); Incubation 18° C./28° C. […] The percentage of mortality was calculated for each assessment times. Statistical analysis of the data was performed with XLSTAT® software (ANOVAs followed by Newman-Keuls tests with a threshold of 5%, see Table below).

Trypsin = target: T1, Trypsin (Bos taurus, UniProt P00760); experiment: Trypsin selectivity; format: biochemical
T1 construct: gene PRSS1
T1 sequence (P00760 24-246): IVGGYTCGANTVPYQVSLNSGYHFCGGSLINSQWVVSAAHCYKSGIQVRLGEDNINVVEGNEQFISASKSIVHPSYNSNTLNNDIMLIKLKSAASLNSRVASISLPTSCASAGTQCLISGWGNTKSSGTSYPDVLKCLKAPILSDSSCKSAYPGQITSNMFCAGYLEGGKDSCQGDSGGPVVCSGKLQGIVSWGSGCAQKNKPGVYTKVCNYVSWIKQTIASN
Description: (§1) To characterize the selectivity of boronic acids 1 to 5, they were assayed against AChE, the target of OP and carbamate insecticides (Table 1) as well as trypsin and bacterial AmpC β-lactamase. […] The toxicity of the hits against two human cell lines was further assessed.
(§2) To characterize the selectivity of boronic acids 1 to 5, they were assayed against the target of OP insecticides, AChE, as well as trypsin and bacterial AmpC β-lactamase (Table 1). AChE and αE7 are homologous, sharing the α/β-hydrolase fold and the same catalytic machinery, however the topology of their binding pockets is dissimilar (Jackson, C. J. et al. Structure and function of an insect α-carboxylesterase (αEsterase7) associated with insecticide resistance. Proc. Natl. Acad. Sci. U.S.A. 110, 10177-82 (2013) and Correy, G. J. et al. Mapping the Accessible Conformational Landscape of an Insect Carboxylesterase Using Conformational Ensemble Analysis and Kinetic Crystallography. Structure 24, 1-11 (2016).). Both trypsin and AmpC β-lactamase contain an activated serine nucleophile and oxyanion hole, however trypsin contains a serine-histidine-aspartic acid (Hedstrom, L. Serine protease mechanism and specificity. Chem. Rev. 102, 4501-4523 (2002).) while AmpC β-lactamase contains a serine-tyrosine-lysine catalytic triad (Dubus, A., et al. The roles of residues Tyr150, Glu272, and His314 in class C β-lactamases. Proteins Struct. Funct. Genet. 25, 473-485 (1996).).

[2] = target: bacterial AmpC β-lactamase (Escherichia coli, UniProt P00811); experiment: AmpC β-lactamase selectivity; format: biochemical
Description: as §1, §2

Aedes aegypti CBE = experiment: Inhibition of insect CBEs, 4-NPB substrate; format: biochemical; conditions: n=3
Description: (§3) Assays were performed with 4-NPB as the substrate.

Anopheles gambiae CBE = experiment: Inhibition of insect CBEs, 4-NPB substrate; format: biochemical; conditions: n=3
Description: as §3

[3] = target: Culex quinquefasciatus CBE (Culex quinquefasciatus, UniProt Q23734); experiment: Inhibition of insect CBEs, 4-NPB substrate; format: biochemical; conditions: n=3
Description: as §3

[4] = tested on: panel of 26 human serine or threonine proteases; experiment: Protease selectivity panel, summary over the panel; format: biochemical; conditions: 100 μM compound
Description: (§4) Test compounds were dissolved in 100% DMSO to make 10 mM stock. Final compound concentration in assay is […]. Compounds were tested in duplicate wells at single concentration and the final concentration of DMSO in all assays was kept at 1%. Five reference compounds, AEBSF, Carfilzomib, Granzyme B Inhibitor II, Dec-RVKR-CMK, and Teneligliptin hydrobromide, were tested in an identical manner with 8 concentration points at 5× dilutions.

[5] = tested on: panel of 26 human serine or threonine proteases; experiment: Protease selectivity panel as a whole (26 Ser/Thr proteases); format: biochemical; conditions: 100 μM; the 3 proteases inhibited by more than 50%
Description: as §4

[6] = tested on: Lucilia cuprina larvae, field strain Tara resistant to diazinon; experiment: Lucilia cuprina larval bioassay (pupation rate), field strain; format: in vivo
From the text: Diazinon resistance is typically associated with the Gly137Asp mutation/resistance allele. […] This is consistent with previous results showing that duplications of the chromosomal region containing αE7 have occurred, meaning that resistant strains now carry copies of both WT and Glyl37Asp LcαE7.
Two strains of L. cuprina were used: 1) a laboratory reference drug-susceptible strain, LS, derived from collections in the Australian Capital Territory over 40 years ago, with no history of exposure to insecticides; and 2) a field-collected strain, Tara, resistant to diazinon and diflubenzuron (Levot, G. W. & Sales, N. New high level resistance to diflubenzuron detected in the Australian sheep blowfly, Lucilia cuprina (Wiedemann) (Diptera: Calliphoridae). Gen. Appl. Entomol. 31, 43-46 (2002)). The LcαE7 gene was sequenced in each of the strains. Briefly, genomic DNA was prepared from 20 adult female flies from each strain using the DNeasy Blood and Tissue kit (Qiagen). PCR was performed with primers specific to the LcαE7 gene, and the product was cloned into a pGEM-T EASY vector (Promega). Eight clones of the susceptible strain and 10 clones of the resistant strain were sequenced using M13 forward and reverse primers.
The effect of compounds 2, 3, 5, 3.9 and 3.10 on the development of blowfly larvae in the presence of diazinon/malathion was assessed using a bioassay system in which larvae were allowed to develop from the first instar stage until pupation on cotton wool impregnated with diazinon/malathion over a range of concentrations, in the presence or absence of the compounds at constant concentrations (Kotze, A. C. et al. Histone deacetylase enzymes as drug targets for the control of the sheep blowfly, Lucilia cuprina. Int. J. Parasitol. Drugs Drug Resist. 5, 201-208 (2015)). Each experiment utilized 50 larvae at each diazinon/malathion concentration. Experiments were replicated three times for diazinon, and twice for malathion. The insecticidal effects were defined by measuring the pupation rate. […] Compounds were also without diazinon or malathion at 1 mg per assay.

Work on `CCOP(=S)(OCC)Oc1nc(Cl)c(Cl)cc1Cl` [CPE, Chlorpyrifos-ethyl] yielded a Percentage of efficacy ([1]; CPE 2.5, 1 DAT, boronic acid where present 0.2 mg/ml) of 0%, a Percentage of efficacy ([1]; CPE 2.5, 3 DAT, boronic acid where present 0.2 mg/ml) of 0% and a Percentage of efficacy ([1]; CPE 2.5, 6 DAT, boronic acid where present 0.2 mg/ml) of 26%. The “Larvae number, mean” value ([1]; CPE 2.5 g a.i./ha, 1 DAT, boronic acid where present 0.2 mg/ml) was 12, the “Larvae number, mean” value ([1]; CPE 2.5 g a.i./ha, 3 DAT, boronic acid where present 0.2 mg/ml) was 12 and the “Larvae number, mean” value ([1]; CPE 2.5 g a.i./ha, 6 DAT, boronic acid where present 0.2 mg/ml) was 8. For the same compound, the Percentage of efficacy ([1]; CPE 6.24, 1 DAT, boronic acid where present 0.2 mg/ml) was 11%, the Percentage of efficacy ([1]; CPE 6.24, 3 DAT, boronic acid where present 0.2 mg/ml) was 16% and the Percentage of efficacy ([1]; CPE 6.24, 6 DAT, boronic acid where present 0.2 mg/ml) was 63%. The “Larvae number, mean” value ([1]; CPE 6.24 g a.i./ha, 1 DAT, boronic acid where present 0.2 mg/ml) was 10.7, the “Larvae number, mean” value ([1]; CPE 6.24 g a.i./ha, 3 DAT, boronic acid where present 0.2 mg/ml) was 9.7 and the “Larvae number, mean” value ([1]; CPE 6.24 g a.i./ha, 6 DAT, boronic acid where present 0.2 mg/ml) was 4. For the same compound, the Percentage of efficacy ([1]; CPE 15.6, 1 DAT, boronic acid where present 0.2 mg/ml) was 40%, the Percentage of efficacy ([1]; CPE 15.6, 3 DAT, boronic acid where present 0.2 mg/ml) was 39% and the Percentage of efficacy ([1]; CPE 15.6, 6 DAT, boronic acid where present 0.2 mg/ml) was 67%. For the same compound, the “Larvae number, mean” value ([1]; CPE 15.6 g a.i./ha, 1 DAT, boronic acid where present 0.2 mg/ml) was 7.3, the “Larvae number, mean” value ([1]; CPE 15.6 g a.i./ha, 3 DAT, boronic acid where present 0.2 mg/ml) was 7 and the “Larvae number, mean” value ([1]; CPE 15.6 g a.i./ha, 6 DAT, boronic acid where present 0.2 mg/ml) was 3.5. For the same compound, the Percentage of efficacy ([1]; CPE 39, 1 DAT, boronic acid where present 0.2 mg/ml) was 72%, the Percentage of efficacy ([1]; CPE 39, 3 DAT, boronic acid where present 0.2 mg/ml) was 83% and the Percentage of efficacy ([1]; CPE 39, 6 DAT, boronic acid where present 0.2 mg/ml) was 88%. The “Larvae number, mean” value ([1]; CPE 39 g a.i./ha, 1 DAT, boronic acid where present 0.2 mg/ml) was 3.3, the “Larvae number, mean” value ([1]; CPE 39 g a.i./ha, 3 DAT, boronic acid where present 0.2 mg/ml) was 2 and the “Larvae number, mean” value ([1]; CPE 39 g a.i./ha, 6 DAT, boronic acid where present 0.2 mg/ml) was 1.3.

`OB(O)c1ccc2ccccc2c1` [Compound 4] was tested, and the Ki (Trypsin) was > 10000 nM and the Ki [2] was 104 nM.

In the case of `Cc1ccc(B(O)O)cc1Br` [Compound 1], the Ki (Trypsin) is reported as > 100000 nM and the Ki [2] is reported as 216 nM.

For `Cc1ccc(B(O)O)cc1OCc1ccccc1` [Compound 2], the Ki (Trypsin) was > 100000 nM, the Ki [2] was 380 nM and the Ki (Aedes aegypti CBE) was 3100 nM. The Ki (Anopheles gambiae CBE) was 170 nM and the Ki [3] was 2400 nM.

`OB(O)c1cc(Br)cc(N2CCCC2)c1` [Compound 3] was tested, and the Ki (Trypsin) was > 100000 nM, the Ki [2] was 60 nM and the “inhibition across the panel of 26 human proteases (in words)” value [4] was “only 3 of the 26 proteases were inhibited by more than 50%”. It also gave a Ki (Aedes aegypti CBE) of 9900 nM, a Ki (Anopheles gambiae CBE) of 790 nM and a Ki [3] of 4700 nM. For the same compound, the “residual activity of the inhibited proteases” value [5] was “at least 30%”.

In the case of `OB(O)c1cc(Br)cc(Oc2ccccc2)c1` [Compound 3.10, 3-Bromo-5-phenoxyfenylboronic acid], the “reduction of diazinon EC50 compared to a diazinon only control” value ([6]; field strain) is reported as 12 fold and the “sensitivity of field strain to diazinon compared to the laboratory strain treated with only diazinon” value ([6]; fold more sensitive) is reported as 4 fold.

In the case of `OB(O)c1ccc(OCc2ccccc2F)c(Cl)c1` [Compound 5, 3-Chloro-4(2′-fluorobenzyloxy) phenylboronic acid], the Ki (Trypsin) is reported as > 100000 nM, the Ki [2] is reported as 220 nM and the Ki (Aedes aegypti CBE) is reported as 40000 nM. It also gave a Ki (Anopheles gambiae CBE) of 30 nM and a Ki [3] of 420 nM.

In the case of `CC(C)Oc1cc(Br)cc(B(O)O)c1` [Compound 3.7, 3-Bromo-5-isopropoxyphenylboronic acid], the Ki (Aedes aegypti CBE) is reported as 2600 nM, the Ki (Anopheles gambiae CBE) is reported as 330 nM and the Ki [3] is reported as 900 nM.

For `OB(O)c1cc(Br)cc(N2CCOCC2)c1` [Compound 3.1], the “Larvae number, mean” value ([1]; boronic acid alone 0.2 mg/ml, 1 DAT, 12 larvae/box) was 12, the “Larvae number, mean” value ([1]; boronic acid alone 0.2 mg/ml, 3 DAT, 12 larvae/box) was 12 and the “Larvae number, mean” value ([1]; boronic acid alone 0.2 mg/ml, 6 DAT, 12 larvae/box) was 8.3.
